According to patent US11807625B2, “Capsid inhibitors for the prevention of HIV” (Gilead Sciences, Inc., priority 2019, dated 2023):
Like-named read-outs stand apart in the source and are kept apart here.

Assay: PK of compound of Formula (Ia) after single subcutaneous dose of solution formulations in beagle dogs
Type: in vivo
Details: male, beagle, dog, plasma, sc, 12 mg/kg; for AUC(0-t): male beagle dogs, single SC 12 mg/kg, mean ± SD, n = 3
Experimental: Formulations containing the compound of Formula (Ia), or a pharmaceutically acceptable salt thereof, were prepared as solutions and optionally administered subcutaneously or intramuscularly to rats, rabbits, and/or dogs.
(§1) A solution of about 400 mg/mL of the compound of Formula (Ia) having 17.00 w/w % water, 36.40 w/w % PEG 300, 35.20 w/w % of a sodium salt of a compound of Formula (Ia), 5.00 w/w % ethanol, and 6.40 w/w % poloxamer 188 was prepared. The solution was administered subcutaneously to male beagle dogs at a dose level of about 12 mg/kg and male Wistar Han rats at a dose level of about 50 mg/kg. The pharmacokinetic profiles were determined, and the results for dogs are summarized in Table and Table, while the results for rats are summarized in Table and Table below.
as §1, with “500” for “400”, “14.06” for “17.00”, “30.12” for “36.40”
A solution of about 300 mg/mL of the compound of Formula (Ia) having 23.33 w/w % water, 48.99 w/w % PEG 300, 26.47 w/w % of a sodium salt of a compound of Formula (Ia), and 1.21 w/w % poloxamer 188 was prepared. The solution was administered subcutaneously to male beagle dogs at a dose level of about 6 mg/kg and male Wistar Han rats at a dose level of about 50 mg/kg. The pharmacokinetic profiles were determined, and the results for dogs are summarized in Table and Table, while the results for rats are summarized in Table and Table below.
as §1, with “18.80” for “17.00”, “40.25” for “36.40”, “34.38” for “35.20”, “1.57” for “6.40”
as §1, with “500” for “400”, “16.29” for “17.00”, “34.88” for “36.40”, “41.92” for “35.20”, “1.91” for “6.40”
as §1, with “20.90” for “17.00”, “44.72” for “36.40”, “and 34.38” for “35.20”, “(Ia)” for “(Ia), 5.00 w/w % ethanol, and 6.40 w/w % poloxamer 188”
A solution of about 400 mg/mL of the compound of Formula (Ia) having 19.90 w/w % water, 42.59 w/w % PEG 300, 34.38 w/w % of a sodium salt of a compound of Formula (Ia), and 3.13 w/w % poloxamer 188 was prepared. The solution was administered subcutaneously to male beagle dogs at a dose level of about 12 mg/kg and male Wistar Han rats at a dose level of about 50 mg/kg. […]

[1] = beagle dogs, SC 12 mg/kg, 500 mg/mL solution X (5.00% ethanol, 1.91% poloxamer 188), Mean n = 3
[2] = beagle dogs, SC 12 mg/kg, 500 mg/mL solution X (5.00% ethanol, 1.91% poloxamer 188), animals #1-#3

- concentration at 24 h [1]: 39.7 nM
- concentration at 24 h [2]: 32.8 nM
- concentration at 48 h [1]: 44.7 nM
- concentration at 48 h [2]: 39.8 nM
- concentration at 72 h (beagle dogs, SC 12 mg/kg, 500 mg/mL solution X (5.00% ethanol, 1.91% poloxamer 188), 72.0 h, Mean n = 3): 36.5 nM
- concentration at 96 h (beagle dogs, SC 12 mg/kg, 500 mg/mL solution X (5.00% ethanol, 1.91% poloxamer 188), 96.0 h, Mean n = 3): 31.4 nM
- concentration at 168 h (beagle dogs, SC 12 mg/kg, 500 mg/mL solution X (5.00% ethanol, 1.91% poloxamer 188), 168 h, Mean n = 3): 39.2 nM
- concentration at 336 h (beagle dogs, SC 12 mg/kg, 500 mg/mL solution X (5.00% ethanol, 1.91% poloxamer 188), 336 h, Mean n = 3): 50.3 nM
- concentration at 504 h (beagle dogs, SC 12 mg/kg, 500 mg/mL solution X (5.00% ethanol, 1.91% poloxamer 188), 504 h, Mean n = 3): 114 nM
- concentration at 672 h (beagle dogs, SC 12 mg/kg, 500 mg/mL solution X (5.00% ethanol, 1.91% poloxamer 188), 672 h, Mean n = 3): 110 nM
- concentration at 840 h (beagle dogs, SC 12 mg/kg, 500 mg/mL solution X (5.00% ethanol, 1.91% poloxamer 188), 840 h, Mean n = 3): 61.4 nM
- concentration at 1008 h (beagle dogs, SC 12 mg/kg, 500 mg/mL solution X (5.00% ethanol, 1.91% poloxamer 188), 1008 h, Mean n = 3): 68.3 nM
- concentration at 1344 h (beagle dogs, SC 12 mg/kg, 500 mg/mL solution X (5.00% ethanol, 1.91% poloxamer 188), 1344 h, Mean n = 3): 48.5 nM
- concentration at 1680 h (beagle dogs, SC 12 mg/kg, 500 mg/mL solution X (5.00% ethanol, 1.91% poloxamer 188), 1680 h, Mean n = 3): 37.7 nM
- concentration at 2016 h (beagle dogs, SC 12 mg/kg, 500 mg/mL solution X (5.00% ethanol, 1.91% poloxamer 188), 2016 h, Mean n = 3): 23.4 nM
- concentration at 2352 h (beagle dogs, SC 12 mg/kg, 500 mg/mL solution X (5.00% ethanol, 1.91% poloxamer 188), 2352 h, Mean n = 3): 24.3 nM
- concentration at 2688 h (beagle dogs, SC 12 mg/kg, 500 mg/mL solution X (5.00% ethanol, 1.91% poloxamer 188), 2688 h, Mean n = 3): 14.6 nM
- concentration at 3024 h (beagle dogs, SC 12 mg/kg, 500 mg/mL solution X (5.00% ethanol, 1.91% poloxamer 188), 3024 h, Mean n = 3): 14.6 nM
- concentration at 3360 h (beagle dogs, SC 12 mg/kg, 500 mg/mL solution X (5.00% ethanol, 1.91% poloxamer 188), 3360 h, Mean n = 3): 9.6 nM
- concentration at 3696 h (beagle dogs, SC 12 mg/kg, 500 mg/mL solution X (5.00% ethanol, 1.91% poloxamer 188), 3696 h, Mean n = 3): 8.6 nM
- concentration at 4032 h (beagle dogs, SC 12 mg/kg, 500 mg/mL solution X (5.00% ethanol, 1.91% poloxamer 188), 4032 h, Mean n = 3): 8.3 nM
- concentration at 4368 h (beagle dogs, SC 12 mg/kg, 500 mg/mL solution X (5.00% ethanol, 1.91% poloxamer 188), 4368 h, Mean n = 3): 6.4 nM
- AUC(0-t) (400 mg/mL solution AA (6.25% poloxamer 188), read-out: AUC0-24 h): 1.57 ± 0.56 µM·h
- AUC(0-t) (400 mg/mL solution AA (6.25% poloxamer 188), read-out: AUC0-168 h): 22.2 ± 7 µM·h
- AUC(0-t) (400 mg/mL solution AA (6.25% poloxamer 188), read-out: AUC0-336 h): 46.3 ± 9.4 µM·h
- AUC(0-t) (400 mg/mL solution AA (6.25% poloxamer 188), read-out: AUC0-672 h): 108 ± 26 µM·h
- AUC(0-t) (400 mg/mL solution AA (6.25% poloxamer 188), read-out: AUC0-1008 h): 149 ± 31 µM·h
- AUC(0-t) (400 mg/mL solution AA (6.25% poloxamer 188), read-out: AUC0-1344 h): 171 ± 33 µM·h
- AUC(0-t) (400 mg/mL solution AA (6.25% poloxamer 188), read-out: AUC0-2352 h): 195 ± 35 µM·h
- AUC(0-t) (400 mg/mL solution AA (6.25% poloxamer 188), read-out: AUC0-3024 h): 200 ± 35 µM·h
- AUC(0-t) (400 mg/mL solution AA (6.25% poloxamer 188), read-out: AUC0-3696 h): 208 ± 47 µM·h
- AUC(0-t) (400 mg/mL solution Y (water, PEG 300), read-out: AUC0-24 h): 0.996 ± 0.513 µM·h
- AUC(0-t) (400 mg/mL solution Y (water, PEG 300), read-out: AUC0-168 h): 9.61 ± 2.6 µM·h
- AUC(0-t) (400 mg/mL solution Y (water, PEG 300), read-out: AUC0-336 h): 27.4 ± 1.9 µM·h
- AUC(0-t) (400 mg/mL solution Y (water, PEG 300), read-out: AUC0-672 h): 100 ± 7.2 µM·h
- AUC(0-t) (400 mg/mL solution Y (water, PEG 300), read-out: AUC0-1008 h): 146 ± 11 µM·h
- AUC(0-t) (400 mg/mL solution Y (water, PEG 300), read-out: AUC0-1344 h): 172 ± 16 µM·h
- AUC(0-t) (400 mg/mL solution Y (water, PEG 300), read-out: AUC0-2352 h): 200 ± 19 µM·h
- AUC(0-t) (400 mg/mL solution Y (water, PEG 300), read-out: AUC0-3024 h): 207 ± 19 µM·h
- AUC(0-t) (400 mg/mL solution Y (water, PEG 300), read-out: AUC0-3696 h): 210 ± 18 µM·h
- AUC(0-t) (400 mg/mL solution Z (3.13% poloxamer 188), read-out: AUC0-24 h): 1.02 ± 0.58 µM·h
- AUC(0-t) (400 mg/mL solution Z (3.13% poloxamer 188), read-out: AUC0-168 h): 10.6 ± 4.9 µM·h
- AUC(0-t) (400 mg/mL solution Z (3.13% poloxamer 188), read-out: AUC0-336 h): 30.1 ± 14.8 µM·h
- AUC(0-t) (400 mg/mL solution Z (3.13% poloxamer 188), read-out: AUC0-672 h): 92.7 ± 31 µM·h
- AUC(0-t) (400 mg/mL solution Z (3.13% poloxamer 188), read-out: AUC0-1008 h): 125 ± 31 µM·h
- AUC(0-t) (400 mg/mL solution Z (3.13% poloxamer 188), read-out: AUC0-1344 h): 147 ± 32 µM·h
- AUC(0-t) (400 mg/mL solution Z (3.13% poloxamer 188), read-out: AUC0-2352 h): 170 ± 33 µM·h
SMILES: CC(C)(C#Cc1ccc(-c2ccc(Cl)c3c(NS(C)(=O)=O)nn(CC(F)(F)F)c23)c([C@H](Cc2cc(F)cc(F)c2)NC(=O)Cn2nc(C(F)(F)F)c3c2C(F)(F)[C@@H]2C[C@H]32)n1)S(C)(=O)=O [compound of Formula (Ia)]
